Results published in ChEMBL document CHEMBL1150076, “Effects of various isoquinoline alkaloids on in vitro 3H-dopamine uptake by rat striatal synaptosomes” (J Nat Prod, 1995).

Molecular target: Sodium-dependent dopamine transporter (Rattus norvegicus, UniProt P23977)
Format: subcellular, Wistar, Brain, Synaptosomes

Chain of Sodium-dependent dopamine transporter (P23977 whole entry): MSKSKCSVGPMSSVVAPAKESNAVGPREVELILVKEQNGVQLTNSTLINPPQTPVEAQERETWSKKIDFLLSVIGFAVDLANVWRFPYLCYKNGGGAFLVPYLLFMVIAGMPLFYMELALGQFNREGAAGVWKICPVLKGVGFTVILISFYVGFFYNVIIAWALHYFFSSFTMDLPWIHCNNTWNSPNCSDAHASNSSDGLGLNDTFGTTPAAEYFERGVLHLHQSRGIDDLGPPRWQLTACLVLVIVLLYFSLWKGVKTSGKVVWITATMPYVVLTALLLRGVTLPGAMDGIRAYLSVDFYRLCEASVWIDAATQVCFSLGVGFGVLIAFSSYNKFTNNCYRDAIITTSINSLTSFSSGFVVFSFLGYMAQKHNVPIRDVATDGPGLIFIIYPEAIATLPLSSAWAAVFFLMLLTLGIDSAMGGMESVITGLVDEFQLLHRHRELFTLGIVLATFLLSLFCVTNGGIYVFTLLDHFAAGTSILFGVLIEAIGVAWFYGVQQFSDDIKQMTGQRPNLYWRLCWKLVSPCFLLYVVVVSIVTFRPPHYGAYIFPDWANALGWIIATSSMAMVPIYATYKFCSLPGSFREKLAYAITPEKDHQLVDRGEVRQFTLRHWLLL

Row | SMILES | IC50
1 | COc1cccc2c1-c1c3c(cc4c1[C@@H](C2)N(C)CC4)OCO3 | 31.8 µM
2 | COc1ccc2c(c1)c(C)c1c3c(cc4c(c32)OCO4)CCN1C | 46.6 µM
3 | COc1cc2c(cc1OC)[C@@H](Cc1ccc(Oc3cc(C[C@@H]4c5cc(OC)c(OC)cc5CCN4C)ccc3OC)cc1)N(C)CC2 | 5.8 µM
4 | COc1c(O)c2c3c(c1OC)CCN(C)[C@@H]3Cc1ccccc1-2 | 46.4 µM
5 | O=C(O)CCCCCCNC1c2ccccc2CCc2ccccc21 [AMINEPTINE] | 1 µM
6 | Oc1ccc2c(c1)C[C@H]1NCCc3cc4c(c-2c31)OCO4 [ANOLOBINE] | 8.1 µM
7 | c1ccc2c(c1)C[C@H]1NCCc3cc4c(c-2c31)OCO4 [ANONAINE] | 0.8 µM
8 | COc1cc2c3cc1Oc1c(O)c(OC)cc4c1[C@H](Cc1ccc(OC)c(c1)-c1cc(ccc1O)C[C@H]3N(C)CC2)N(C)CC4 [ANTIOQUINE] | 3.4 µM
9 | Cc1c2c3c(cc4c(c3c3ccc(O)cc13)OCO4)CCN2C [BELEMINE] | 61.4 µM
10 | COc1cc2c(cc1O)C[C@H]1c3c(ccc(O)c3O2)CCN1C [BREOGANINE] | 56.5 µM
11 | COc1cc2c(cc1O)Oc1c(O)ccc3c1[C@H](C2)N(C)CC3 [CELTISINE] | > 100 µM
12 | COc1ccc2c(c1O)Oc1c(O)ccc3c1[C@H](C2)N(C)CC3 [CLAVICULINE] | > 100 µM
13 | COc1cc2c(cc1OC)Oc1c(O)ccc3c1[C@H](C2)N(C)CC3 [CULARIDINE] | 41.2 µM
14 | COc1cc2c(cc1OC)[C@@H](Cc1ccc(Oc3cc(C[C@H]4c5cc(OC)c(OC)cc5CCN4C)ccc3OC)cc1)N(C)CC2 [DIMETHYLGRISABINE] | 1.1 µM
15 | COc1cc2c3cc1Oc1c(OC)c(OC)cc4c1[C@@H](C(=O)c1ccc(OC)c(c1)-c1cc(ccc1OC)C[C@H]3N(C)CC2)N(C)CC4 [DIMETHYLPSEUDOXANDRINE] | 20.1 µM
16 | COc1cc2c3c(c(-c4c5c6c(cc7c(c6c6ccccc46)OCO7)CCN5)c4ccccc4c3c1OC)NCC2 [HETEROPSINE] | > 100 µM
17 | COc1ccc2cc1Oc1ccc(cc1)C[C@H]1c3c(cc(OC)c(O)c3Oc3cc4c(cc3OC)CCN(C)[C@@H]4C2)CCN1C [HOMOAROMOLINE] | 10.9 µM
18 | COc1cc(C[C@H]2c3c(ccc(OC)c3O)CCN2C)ccc1O [ISOCRASSIFOLINE] | 36.2 µM
19 | COc1c(O)c2c3c(c1OC)CCN[C@@H]3Cc1ccccc1-2 [ISOPILINE] | 2.5 µM

Row | SMILES | IC50
20 | COc1ccc2cc1Oc1ccc(cc1)C[C@@H]1c3cc(c(OC)cc3CCN1C)Oc1c(OC)c(OC)cc3c1[C@H](C2)N(C)CC3 [ISOTETRANDRINE] | 4.2 µM
21 | COc1cc2c(cc1O)[C@H](Cc1ccc(O)cc1)NCC2 [L-COCLAURINE] | 14.1 µM
22 | O=C1c2ccccc2-c2c3c(cc4ccnc1c24)OCO3 [LIRIODENINE] | 31.2 µM
23 | COc1cc2ccnc3c2c(c1OC)-c1ccccc1C3=O [LYSICAMINE] | > 100 µM
24 | COc1c(O)c2c3c(nccc3c1OC)C(C)(C)c1cc(O)ccc1-2 [MELOSMINE] | 23.6 µM
25 | COc1cc2c(cc1OC)[C@H](Cc1ccc(O)cc1)NCC2 [NORARMEPAVINE] | 37 µM
26 | COc1cc2c(cc1O)C[C@@H]1NCCc3cc(O)c(OC)c-2c31 [NORBOLDINE] | 16.5 µM
27 | COc1c2c3c(c4c1OCO4)-c1ccccc1C[C@H]3NCC2 [NORSTEPHALAGINE] | 1.4 µM
28 | COc1ccc2cc1Oc1ccc(cc1)C[C@H]1c3c(cc(OC)c(OC)c3Oc3cc4c(cc3OC)CCN(C)[C@@H]4C2)CCN1C [OBABERINE] | 3.9 µM
29 | COc1cc2c(cc1OC)C(=O)c1nccc3ccc(OC)c(c13)O2 [OXOCULARINE] | > 100 µM
30 | COc1ccc2c(c1OC)Oc1c(O)ccc3ccnc(c13)C2 [OXOSARCOPHYLLINE] | > 100 µM
31 | COc1cc2c(cc1OC)[C@@H](Cc1ccc(OC)c(Oc3ccc(C[C@H]4NCCc5cc(OC)c(OC)cc54)cc3)c1)N(C)CC2 [PAMPULHAMINE] | 84.2 µM
32 | COc1ccc2c(c1O)Oc1c(OC)ccc3c1[C@H](C2)N(C)CC3 [SARCOCAPNIDINE] | 85.5 µM
33 | COc1cc2c3c(c1OC)-c1c(ccc(O)c1O)C[C@H]3N(C)CC2 [SAUVEOLINE] | > 100 µM
34 | COc1cc2c(cc1Oc1c(O)c(OC)cc3c1[C@H](Cc1ccc(OC)c(-c4cc(C=O)ccc4O)c1)N(C)CC3)C(=O)N(C)CC2 [SECANTIOQUINE] | > 100 µM
35 | COc1cc2c(cc1OC)Oc1c(O)ccc(CCN(C)C)c1C=C2 [SECOCULARIDINE] | 13.4 µM
36 | COc1cc2c(cc1OC)Oc1c(OC)ccc(CCN(C)C)c1C=C2 [SECOCULARINE] | 28.2 µM
37 | COc1ccc(C[C@H]2c3c(cc(OC)c4c3Oc3cc5c(cc3O4)CCN(C)C5=O)CCN2C)cc1-c1cc(C=O)ccc1O [SECOLUCIDINE] | > 100 µM
